According to patent publication US20040137455A1, “Diagnosis of cancer or benign tumor using the aberrant expression product of the klk4 gene” (priority 2001, published 2004):

What was measured:
[1] = test system: K4 protein in the KLE cell line; assay: Western analysis of K4 protein levels in KLE cells after steroid treatment; format: cell-based, human; conditions: KLE endometrial cancer cell line, 10 nmol/L steroid, 48 h, 200 μg intracellular protein
Description: The endometrial cancer cell lines, Ishikawa (well differentiated), HEC1A, HEC1B, RL95-2 (moderately differentiated) and KLE (poorly differentiated) and the prostate cancer cell line LNCaP, used for a control, were obtained from the American Type Culture Collection, Rockville, Md. Prostate and kidney control tissue was obtained from Royal Brisbane Hospital and Princess Alexandra Hospital respectively. All cell lines were cultured in DMEM (Life Technologies, Rockville, Md.) with 10% FCS, 50 U/mL Penicillin G and 50 μg/mL Streptomycin (CSL Biosciences, Melbourne, Australia) at 37 C and 5% CO2. The regulation studies were performed in triplicate in the KLE cell line using phenol red and FCS-free media. After 24 h, fresh media was supplemented with 10 nmol/L 17β-estradiol or progesterone, (Sigma Chemical Company, St Louis, Mo.) and the cells were maintained for 48 h with these steroids. In addition, […] progesterone was added to one group of oestrogen-treated cells after 24 h. […] Detection was determined using X-ray film and visualisation of the chemiluminescence signal. Fold changes in the level of signal were assessed using the Hewlett Packard Scan Jet IICX and ImagQuant™ 4.21A software (Molecular Dynamics, Amersham)

[2] = test system: hK4 intracellular levels in OVCAR-3; assay: Western blot and densitometry of hK4 intracellular levels in OVCAR-3 cells (oestrogen regulation); format: cell-based, human
Excerpt: Normal ovary and ovarian tumour samples were obtained at surgery from women who underwent laparotomy for benign and malignant conditions in the Department of Obstetrics and Gynaecology at the Royal Women's Hospitals and Monash Medical Centre. Ethics approval was obtained from the respective institutional Ethics Committees and informed consent was obtained from all patients. Epithelial cells from normal, benign and malignant ovaries were isolated from some of these tissue samples and the primary cultured cells were grown in M199 (Sigma, St. Louis, Mo., USA) and MCDB 105 (Sigma) media supplemented with 10% FCS and 10 ng/mL human epidermal growth factor (Boehringer Mannheim, Germany) (17). The ovarian cancer cell lines, that were used in this study, were derived from late stage serous carcinomas with well (PEO14 and OAW42), moderate (SKOV-3 and OVCAR-3) or poor (JAM, CI-80-13S, PEO1 and PEO4) differentiation. SKOV-3 and OVCAR-3 were from American Type Culture Collection, and the remainder have been described previously (18, 19). These cell lines were grown in RPMI (Life Technologies, Inc., Gaithersburg. MD, USA) supplemented with 10% FCS. For the oestrogen regulation study, OVCAR-3 cells were grown to 50% confluency. […]

| Compound | levels of K4 protein elevated compared to the control [1] [fold] | effect on intracellular hK4 levels (densitometry of Western blot) ([2]; OVCAR-3, 100 nM, over 30 hrs) | up-regulation of hK4 intracellular levels ([2]; OVCAR-3 ovarian carcinoma cell line, 100 nM, 8-30 hr, time dependent) |
| --- | --- | --- | --- |
| C[C@]12CC[C@@H]3c4ccc(O)cc4CC[C@H]3[C@@H]1CC[C@@H]2O [estradiol, 17β-estradiol] | 16 | up-regulation | 1.5-4 fold |
| CC(=O)[C@H]1CC[C@H]2[C@@H]3CCC4=CC(=O)CC[C@]4(C)[C@H]3CC[C@]12C [progesterone] | 27 |  |  |
